How the values were obtained:
[1] = compound: T1, CN(C)C(=O)c1cc2cnc(Nc3ccc(N4CCNCC4)cn3)nc2n1C1CCCC1 [LEE011/Ribociclib]
[2] = compound: Cc1nc(-c2cn3c(n2)-c2ccc(-c4cnn(C(C)(C)C(N)=O)c4)cc2OCC3)n(C(C)C)n1 [Taselisib/GDC0032]
[3] = compound: CC[C@@H]1C(=O)N(C)c2cnc(Nc3ccc(C(=O)N[C@H]4CC[C@H](N5CCN(CC6CC6)CC5)CC4)cc3OC)nc2N1C(C)C [Volasertib/BI6727]
[4] = compound: CCN1CCN(Cc2ccc(Nc3ncc(F)c(-c4cc(F)c5nc(C)n(C(C)C)c5c4)n3)nc2)CC1
[5] = compound: O=C1NC(=O)[C@@H](c2cn3c4c(cccc24)CCC3)[C@@H]1c1c[nH]c2ccccc12 [Tivantinib/ARQ197]
[6] = compound: CS(=O)(=O)N1CCN(Cc2cc3nc(-c4cccc5[nH]ncc45)nc(N4CCOCC4)c3s2)CC1 [Pictilisib/GDC0941]
[7] = compound: CN(C)CC[C@H](CSc1ccccc1)Nc1ccc(S(=O)(=O)NC(=O)c2ccc(N3CCN(Cc4ccccc4-c4ccc(Cl)cc4)CC3)cc2)cc1[N+](=O)[O-] [ABT-737]
[8] = compound: T2, CCOc1cc2ncc(C#N)c(Nc3ccc(OCc4ccccn4)c(Cl)c3)c2cc1NC(=O)/C=C/CN(C)C [Neratinib/HKI272]
[9] = compound: Cc1cc(Nc2ncc(Cl)c(Nc3ccccc3S(=O)(=O)C(C)C)n2)c(OC(C)C)cc1C1CCNCC1 [Ceritinib/LDK378]
[10] = compound: T3, CC(=O)c1c(C)c2cnc(Nc3ccc(N4CCN(CCOCCOCCOCCNC(=O)COc5cccc6c5C(=O)N(C5CCC(=O)NC5=O)C6=O)CC4)cn3)nc2n(C2CCCC2)c1=O [BSJ-03-123]
[11] = compound: CC(C)n1nc(-c2ccc3oc(N)nc3c2)c2c(N)ncnc21 [INK128/MLN0128]
[12] = compound: CN(C)C/C=C/C(=O)Nc1ccc(C(=O)N2CCC[C@@H](Nc3ncc(Cl)c(-c4c[nH]c5ccccc45)n3)C2)cc1 [THZ531]
[13] = compound: CC(=O)O[C@H]1C(=O)[C@@]2(C)[C@H]([C@H](OC(=O)c3ccccc3)[C@]3(O)C[C@H](OC(=O)[C@H](O)[C@@H](NC(=O)c4ccccc4)c4ccccc4)C(C)=C1C3(C)C)[C@]1(OC(C)=O)CO[C@@H]1C[C@@H]2O [Paclitaxel]
[14] = compound: COc1ccc2c(c1)[C@]1(C[C@H]1c1ccc3c(/C=C/c4ccc(CN5C[C@@H](C)O[C@@H](C)C5)cc4)n[nH]c3c1)C(=O)N2
[15] = compound: T1, LEE011/Ribociclib; test: GR value, 72 h; higher = faster growth (1 = untreated, <0 = killing);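 further: breast cancer and non-malignant breast epithelial lines, nine half-log doses, viable cells counted by Hoechst and LIVE/DEAD dye imaging versus time-zero plates and DMSO controls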
[16] = compound: CCc1cnn2c(NCc3ccc[n+]([O-])c3)cc(N3CCCC[C@H]3CCO)nc12; test: as above
[17] = compound: CCN1CCN(Cc2ccc(Nc3ncc(F)c(-c4cc(F)c5nc(C)n(C(C)C)c5c4)n3)nc2)CC1; test: as above
[18] = compound: C=CC(=O)Nc1ccc(C(=O)Nc2[nH]nc3c2CN(C(=O)N[C@H](CN(C)C)c2ccccc2)C3(C)C)cc1 [YKL-5-124]; test: as above
[19] = compound: T2, Neratinib/HKI272; test: as above
[20] = compound: T3, BSJ-03-123; test: as above
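Wherever GR50, 72 h is given: breast cancer and non-malignant breast epithelial cell lines, Deep Dye Drop or Dye Drop imaging, nine half-log doses, GR normalized to time-zero plates and DMSO-only controls.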

## SUM149
[1]
  GR50, 72 h: > 10 µM
[2]
  GR50, 72 h: 2.55 µM
[3]
  GR50, 72 h: 0.012 µM
[4]
  GR50, 72 h: 0.594 µM
[5]
  GR50, 72 h: 0.281 µM
[6]
  GR50, 72 h: 6.06 µM
[7]
  GR50, 72 h: 3.63 µM
[8]
  GR50, 72 h: 0.0697 µM
[9]
  GR50, 72 h: 1.7 µM
[10]
  GR50, 72 h: 1.33 µM
[11]
  GR50, 72 h: 0.163 µM
[12]
  GR50, 72 h: 0.345 µM
[13]
  GR50, 72 h: 0.00159 µM
[14]
  GR50, 72 h: 0.00332 µM
[15]; 0.001 µM
  GR value: 0.951 GR
[15]; 0.003162 µM
  GR value: 0.904 GR
[15]; 0.01 µM
  GR value: 0.916 GR
[15]; 0.03162 µM
  GR value: 0.885 GR
[15]; 0.1 µM
  GR value: 0.776 GR
[15]; 0.3162 µM
  GR value: 0.771 GR
[15]; 1 µM
  GR value: 0.764 GR
[15]; 3.162 µM
  GR value: 0.669 GR
[15]; 10 µM
  GR value: 0.599 GR
[16]; 0.0001 µM
  GR value: 1.01 GR
[16]; 0.0003162 µM
  GR value: 1.04 GR
[16]; 0.001 µM
  GR value: 1.01 GR
[16]; 0.003162 µM
  GR value: 1.03 GR
[16]; 0.01 µM
  GR value: 0.828 GR
[16]; 0.03162 µM
  GR value: -0.457 GR
[16]; 0.1 µM
  GR value: -0.575 GR
[16]; 0.3162 µM
  GR value: -0.578 GR
[16]; 1 µM
  GR value: -0.561 GR
[17]; 0.001 µM
  GR value: 0.973 GR
[17]; 0.003162 µM
  GR value: 1.02 GR
[17]; 0.01 µM
  GR value: 0.875 GR
[17]; 0.03162 µM
  GR value: 0.751 GR
[17]; 0.1 µM
  GR value: 0.666 GR
[17]; 0.3162 µM
  GR value: 0.562 GR
[17]; 1 µM
  GR value: 0.417 GR
[17]; 3.162 µM
  GR value: 0.375 GR
[17]; 10 µM
  GR value: 0.0944 GR
[18]; 0.001 µM
  GR value: 0.351 GR
[18]; 0.003162 µM
  GR value: 0.226 GR
[18]; 0.01 µM
  GR value: 0.228 GR
[18]; 0.03162 µM
  GR value: 0.141 GR
[18]; 0.1 µM
  GR value: 0.132 GR
[18]; 0.3162 µM
  GR value: 0.114 GR
[18]; 1 µM
  GR value: 0.0596 GR
[18]; 3.162 µM
  GR value: 0.0431 GR
[18]; 10 µM
  GR value: -0.104 GR
[19]; 0.0003162 µM
  GR value: 1.04 GR
[19]; 0.001 µM
  GR value: 1.01 GR
[19]; 0.003162 µM
  GR value: 1.02 GR
[19]; 0.01 µM
  GR value: 0.895 GR
[19]; 0.03162 µM
  GR value: 0.663 GR
[19]; 0.1 µM
  GR value: 0.408 GR
[19]; 0.3162 µM
  GR value: 0.251 GR
[19]; 1 µM
  GR value: 0.199 GR
[19]; 3.162 µM
  GR value: 0.144 GR
[20]; 0.001 µM
  GR value: 0.996 GR
[20]; 0.003162 µM
  GR value: 0.91 GR
[20]; 0.01 µM
  GR value: 0.904 GR
[20]; 0.03162 µM
  GR value: 0.794 GR
[20]; 0.1 µM
  GR value: 0.81 GR
[20]; 0.3162 µM
  GR value: 0.72 GR
[20]; 1 µM
  GR value: 0.579 GR
[20]; 3.162 µM
  GR value: 0.428 GR
[20]; 10 µM
  GR value: 0.0273 GR

Reference: the supplement of paper PMC9663587
